Where no end group is shown, it is not given here.
Legend:
human erythrocytes = experiment: Haemolytic activity; assay type: cell-based; conditions: 37 °C, 30 min; for haemolysis rate: human erythrocytes, relative to 0.1% Triton X-100
Method: Haemolytic activity of the peptides was assayed by a standard procedure with slight modification. Fresh human erythrocytes were washed three times and resuspended at 1.25% haematocrit in PBS. Forty microlitres PBS-diluted peptide solution was added to a V-bottom 96-well plate (Corning Inc., Lowell, MA, USA), and 160 μl of erythrocytes was added. After incubation at 37 °C for 30 min, the samples were centrifuged, and the absorbance of the supernatant was measured at 450 nm using a multi-well microplate reader (SpectraMax M5; Molecular Devices, Sunnyvale, CA, USA) and compared with the 100% haemolysis caused by 0.1% Triton X-100. The percentage of haemolysis was calculated according to the equation (2): […]

[1] = system: L929 mouse fibroblast cells; experiment: Cytotoxicity, MTT assay; assay type: cell-based; conditions: 1 hour
Method: The toxicity of the peptides against L929 mouse fibroblast cells was assessed by a standard MTT assay. L929 mouse fibroblast cells from ATCC (Manassas, VA, USA) were maintained in our laboratory. L929 cells were cultured in RPMI 1640 supplemented with 10% (v/v) FBS, 2 mM L-glutamine, 100 U/ml penicillin and […] streptomycin and maintained in a humidified incubator with 5% CO2 at 37 °C. L929 cells (5 × 10^3cells/well) were seeded in 96-well plates (Corning Inc., Lowell, MA, USA) and incubated overnight. Diluted peptides were added to L929 cells and incubated for 1 hour. Then, 20 μl of MTT (5 mg/ml) solution was added and incubated for 4 hours. The medium was removed, and 150 μl of DMSO was added to each well to dissolve the formazan crystals. The absorbance was measured at 490 nm on a microplate reader (SpectraMax M5; Molecular Devices, Sunnyvale, CA, USA). Cell viabilities were calculated by using the equation (3): […]

[2] = system: Bacillus subtilis (1.3376); experiment: Antimicrobial activity, broth microdilution MIC; assay type: cell-based; conditions: modified CLSI broth microdilution, LB medium, 1 × 10^6 CFU/ml, 37 °C, 18 to 20 hours, absorbance 600 nm
Method: (§1) The antibacterial activities of the peptides against three Gram-negative bacteria and three Gram-positive bacteria strains were measured using a modified version of the Clinical Laboratory and Standards Institute (CLSI) broth microdilution method as described previously. Three Gram-negative bacteria, Escherichia coli (1.8732), Pseudomonas aeruginosa (1.2421), and Klebsiella pneumonia (1.1736), and three Gram-positive bacteria, Staphylococcus aureus (1.8721), Staphylococcus epidermidis (1.4260), and Bacillus subtilis (1.3376), were purchased from the China General Microbiological Culture Collection Centre (CGMCC). Briefly, bacteria were grown in liquid LB medium (tryptone, 10 g/L, yeast extract, 5 g/L and NaCl, 10 g/L) at 37 °C to mid-log phase, and the bacteria were diluted to 1 × 10^6 colony-forming units (CFU)/ml. The peptides were serially diluted with phosphate-buffered saline (PBS), and 50 μl diluted peptides were added to 50 μl of the bacterial suspension in 96-well plate (Corning Inc., Lowell, MA, USA). After incubation at 37 °C for 18 to 20 hours, the absorbance of each well was recorded using a multi-well microplate reader (SpectraMax M5; Molecular Devices, Sunnyvale, CA, USA) at 600 nm. The lowest concentration at which the peptide inhibited complete growth of the bacteria was taken as the minimal inhibitory concentration (MIC).

[3] = system: Escherichia coli (1.8732); experiment: Antimicrobial activity, broth microdilution MIC; assay type: cell-based; conditions: modified CLSI broth microdilution, LB medium, 1 × 10^6 CFU/ml, 37 °C, 18 to 20 hours, absorbance 600 nm
Method: as §1

[4] = system: Klebsiella pneumonia (1.1736); experiment: Antimicrobial activity, broth microdilution MIC; assay type: cell-based; conditions: modified CLSI broth microdilution, LB medium, 1 × 10^6 CFU/ml, 37 °C, 18 to 20 hours, absorbance 600 nm
Method: as §1

[5] = system: Pseudomonas aeruginosa (1.2421); experiment: Antimicrobial activity, broth microdilution MIC; assay type: cell-based; conditions: modified CLSI broth microdilution, LB medium, 1 × 10^6 CFU/ml, 37 °C, 18 to 20 hours, absorbance 600 nm
Method: as §1

[6] = system: Staphylococcus aureus (1.8721); experiment: Antimicrobial activity, broth microdilution MIC; assay type: cell-based; conditions: modified CLSI broth microdilution, LB medium, 1 × 10^6 CFU/ml, 37 °C, 18 to 20 hours, absorbance 600 nm
Method: as §1

[7] = system: Staphylococcus epidermidis (1.4260); experiment: Antimicrobial activity, broth microdilution MIC; assay type: cell-based; conditions: modified CLSI broth microdilution, LB medium, 1 × 10^6 CFU/ml, 37 °C, 18 to 20 hours, absorbance 600 nm
Method: as §1

Gram-negative bacteria = assay type: cell-based, E. coli, P. aeruginosa, K. pneumoniae; conditions: ratio of MHC to GM, Gram-negative bacteria
Method: (§2) The antimicrobial activities of the peptides, indicated by the minimum inhibitory concentrations (MIC), were determined against a range of Gram-negative (Table 3) and Gram-positive bacterial strains (Table 4). The geometric mean of MIC values (GM) from the three strains was calculated to provide an overall evaluation of antimicrobial activity.
(§3) The therapeutic index (TI) is defined as the ratio of the minimum haemolytic concentration (MHC) of peptides to the GM of peptides, and this value was used to evaluate cell selectivity of peptides towards the negatively charged region of bacterial cell membranes over the zwitterionic mammalian cell membranes.
as §1

Gram-positive bacteria = assay type: cell-based, S. aureus, S. epidermidis, B. subtilis; conditions: ratio of MHC to GM, Gram-positive bacteria
Method: as §2, §3, §1

Acinetobacter baumannii = experiment: MIC against biofilm-producing clinical isolate; assay type: cell-based; conditions: biofilm-producing strain, broth microdilution as for the other strains
Method: The antibacterial activities of the peptides against three Gram-negative bacteria and three Gram-positive bacteria strains were measured using a modified version of the Clinical Laboratory and Standards Institute (CLSI) broth microdilution method as described previously. Three Gram-negative bacteria, Escherichia coli (1.8732), Pseudomonas aeruginosa (1.2421), and Klebsiella pneumonia (1.1736), and three Gram-positive bacteria, Staphylococcus aureus (1.8721), Staphylococcus epidermidis (1.4260), and Bacillus subtilis (1.3376), were purchased from the China General Microbiological Culture Collection Centre (CGMCC). […] After incubation at 37 °C for 18 to 20 hours, the absorbance of each well was recorded using a multi-well microplate reader (SpectraMax M5; Molecular Devices, Sunnyvale, CA, USA) at 600 nm. […]
Biofilm attachment assays against Acinetobacter baumannii were performed using a previously described method with some modifications. […] The MICs of AMPs against A. baumannii were evaluated as described above. […] The wells were allowed to dry, and the crystal violet-stained well was re-solubilized with 200 μl of 95% ethanol and shaken for 10 min followed by measurement of the absorbance at 595 nm on a microplate reader (SpectraMax M5; Molecular Devices, Sunnyvale, CA, USA). […]

Substance	haemolysis rate (human erythrocytes; 100 μM peptide) [%]	viability of treated L929 cells ([1]; 50 μM peptide) [%]	MIC B. subtilis [2] [µM]	MIC E. coli [3] [µM]	MIC K. pneumoniae [4] [µM]	MIC P. aeruginosa [5] [µM]	MIC S. aureus [6] [µM]	MIC S. epidermidis [7] [µM]	TI, therapeutic index (Gram-negative bacteria)	TI, therapeutic index (Gram-positive bacteria)	MIC Acinetobacter baumannii (Acinetobacter baumannii) [µM]	haemolysis rate (human erythrocytes; 3.13 μM peptide) [%]	MHC, minimum haemolytic concentration (human erythrocytes; concentration causing 10% haemolysis of hRBC, 200 μM used when no haemolysis detectable at 100 μM) [µM]	viability of treated L929 cells ([1]; 6.25 μM peptide)
RIGSILGRLAKGLPTLKSWIKNR-NH2 [A(A1R, A8R, I17K)]	4.4	31.4	12.5	12.5	12.5	12.5	100	6.25	16	10.08	12.5	–	–	–
AIGSILGALAKGLPTLISWIKNR-NH2 [AR-23, reference compound]	–	–	3.13	25	12.5	12.5	6.25	3.13	0.2	0.79	12.5	37.9	3.13	approximately 10%

— article PMC4897634, “Design of an α-helical antimicrobial peptide with improved cell-selective and potent anti-biofilm activity” (Scientific Reports, 2016)
